Data published in the NIST ThermoML archive (doi:10.1016/j.jct.2017.03.024).
± gives the expanded uncertainty stated by the source.

Details: Liquid, Closed cell (Static) method

O [water]
Details | vapor or sublimation pressure [kPa]
298 K | 3.35 ± 2.4
313 K | 7.4 ± 2.4
323 K | 12.12 ± 2.4
328.2 K | 15.07 ± 2.4
333 K | 18.99 ± 2.4
337.5 K | 23.33 ± 2.4
